Source: PubChem BioAssay (NCI)
Values joined by “and” are separate entries in the source; they are usually repeats but may differ in a detail not shown here. Identical values can stand only once.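 Each compound was tested at five concentrations against cells in 96-well plates for 48 hours. At the GI50, growth is halved. At the TGI there is no net growth.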

Tests used:
Test in all cases: NCI anticancer screen, dose series, 48 h
HT29 colon = test system: HT29 colon
LOX IMVI melanoma = test system: LOX IMVI melanoma
UACC-257 melanoma = test system: UACC-257 melanoma
COLO 205 colon = test system: COLO 205 colon
RXF 393 renal = test system: RXF 393 renal
U251 CNS = test system: U251 CNS
A498 renal = test system: A498 renal
SK-OV-3 ovarian = test system: SK-OV-3 ovarian
SNB-19 CNS = test system: SNB-19 CNS
NCI-H522 lung = test system: NCI-H522 lung

SMILES	GI50 (HT29 colon)	TGI (HT29 colon)	GI50 (LOX IMVI melanoma)	TGI (LOX IMVI melanoma)	GI50 (UACC-257 melanoma)	TGI (UACC-257 melanoma)	GI50 (COLO 205 colon)	TGI (COLO 205 colon)	GI50 (RXF 393 renal)	TGI (RXF 393 renal)	GI50 (U251 CNS)	TGI (U251 CNS)	GI50 (A498 renal)	TGI (A498 renal)	GI50 (SK-OV-3 ovarian)	TGI (SK-OV-3 ovarian)	GI50 (SNB-19 CNS)	TGI (SNB-19 CNS)	GI50 (NCI-H522 lung)	TGI (NCI-H522 lung)
OC(CNc1ccnc2cc(Cl)ccc12)CNC1CCCCC1 (stereo not given)	3.26 µM	12.2 µM	4.57 µM	16.7 µM	1.78 µM	3.33 µM	1.69 µM	3.31 µM	2.5 µM	8.72 µM	2.14 µM	5.37 µM	1.52 µM	8.16 µM	10.5 µM	32.8 µM	22.4 µM	75.5 µM	2.72 µM	6.55 µM
CN(C)CCNC(=O)c1cc2c3ccccc3[nH]c2c2ncccc12	5.27 µM	34.1 µM	4.14 µM	17.5 µM	10.4 µM	88.1 µM	2.95 µM	16.5 µM	6.08 µM	20.1 µM	12.2 µM	37 µM	7.82 µM	21.4 µM	23.5 µM	> 100 µM	14.7 µM	93.2 µM	7.08 µM	24.5 µM
CCCCCCCCCCCC[n+]1ccc(C(N)=O)cc1	2.18 µM	13.1 µM	2.4 µM	13.2 µM	4.24 µM	17.8 µM	1.55 µM	2.98 µM	1.74 µM	5.46 µM	1.14 µM	3.55 µM	4.85 µM	19.5 µM	4.18 µM	15.2 µM	1.82 µM	4.34 µM	2.33 µM	8.38 µM
CC(C)(c1ccc(OC#N)cc1)c1ccc(OC#N)cc1	–	> 100 µM	–	> 70.8 µM	–	> 100 µM	–	> 67.7 µM	–	> 100 µM	–	> 100 µM	–	> 100 µM	–	> 100 µM	–	> 100 µM	–	> 31.6 µM
CS/C(c1ccccc1)=[N+](/C)[O-]	–	> 100 µM	–	> 58.2 µM	–	> 100 µM	–	> 61.5 µM	–	> 100 µM	–	> 100 µM	–	> 100 µM	–	> 100 µM	–	> 100 µM	–	> 100 µM
CC1=C(C(=O)Nc2ccc(F)c(Cl)c2)C(c2cccc(Oc3ccccc3)c2)NC(=O)N1 (stereo not given)	12 µM	24.5 µM	15.4 µM	28.7 µM	18 µM	34.9 µM	14.2 µM	29.6 µM	14.4 µM	32.1 µM	13.4 µM	26.2 µM	10.5 µM	23.4 µM	18 µM	32.7 µM	16 µM	31.3 µM	14.9 µM	29.4 µM
S=C(Nc1ccccc1)N(Cc1ccccc1)c1ccccc1	–	85.9 µM	–	> 100 µM	–	54.6 µM	–	51.8 µM	–	85 µM	–	> 100 µM	–	67.2 µM	–	> 100 µM	–	> 100 µM	–	62.3 µM
COc1cc(/C=C2/C(=O)NC(Cc3cc(OC)c(OC)c(C)c3OC)C(=O)N2Cc2ccccc2)c(OC)c(C)c1OC (stereo not given)	–	> 100 µM	–	> 100 µM	–	> 100 µM	–	35 µM	–	> 100 µM	–	> 100 µM	–	> 100 µM	–	> 100 µM	–	> 100 µM	–	60.2 µM
Cc1ccc(S(=O)(=O)Nc2nc3ccccc3nc2Nc2ccc3nsnc3c2)cc1	6.78 µM and 3.1 µM	> 100 µM	3.67 µM and 3.89 µM	36.1 µM and > 100 µM	3.56 µM and 2.87 µM	27.7 µM and > 100 µM	5.81 µM and 9.83 µM	23.6 µM and > 100 µM	6.92 µM and 7.73 µM	35.1 µM and > 100 µM	3.26 µM and 3.65 µM	> 100 µM	4.85 µM and 2.86 µM	> 100 µM	4.76 µM	> 100 µM	3.29 µM and 3.54 µM	> 100 µM	3.59 µM and 1.5 µM	31.1 µM and 4.47 µM
CCOc1ccccc1NC(=O)C1=C(C)NC(C)=C(C(=O)Nc2ccccc2OCC)C1c1ccc(NC(C)=O)cc1	–	> 100 µM	–	> 100 µM	–	> 100 µM	–	41.1 µM	–	> 100 µM	–	> 100 µM	–	88.9 µM	–	67.5 µM	–	> 100 µM	–	23.6 µM
NCCCCN(Cc1nc2ccccc2[nH]1)[C@H]1CCCc2cccnc21	6.29 µM	34.1 µM	12 µM	38.2 µM	15.3 µM	31.4 µM	7.65 µM	26.2 µM	13.5 µM	66.8 µM	11.3 µM	> 67.8 µM	7.81 µM	> 51.8 µM	18.6 µM	> 86.5 µM	26.9 µM	> 100 µM	19.8 µM	> 64.8 µM
O=C(CN1C(=O)c2ccccc2C1=O)C(O)CN1C(=O)c2ccccc2C1=O (stereo not given)	–	> 100 µM	–	> 100 µM	–	> 100 µM	–	> 100 µM	–	> 100 µM	–	91.5 µM	–	> 100 µM	–	> 100 µM	–	> 100 µM	–	> 100 µM
